Source: patent publication US20150323548A1, “METHODS OF MONITORING THE MODULATION OF THE KINASE ACTIVITY OF FIBROBLAST GROWTH FACTOR RECEPTOR AND USES OF SAID METHODS” (Novartis AG, priority 2008, published 2015)
Like-named read-outs stand apart in the source and are kept apart here.

Columns and labels:
[1] = test system: FRS2 tyrosine phosphorylation (read-out for FGFR activity); experiment: Ex vivo FRS2 tyrosine phosphorylation in RT112 tumor xenografts in rats (Western blot); set-up: species or system rat; conditions: single oral 10, 25 or 50 mg/kg; tumors dissected 3 h post-treatment
Protocol: FIG. 12 is a photograph showing the ex vivo analysis of RT112 tumor xenografts. Tumors were dissected 3 h after compound administration. Tumor tissue was lysed and FRS2 tyrosine phosphorylation levels were analysed by western blot using an antibody from Cell Signaling (#3864) that detects FRS2 when phosphorylated on Tyr196. As a loading control, membrane was probed with an antibody from Sigma (#T4026) that detects b-tubulin.
Compound Formulation and Animal Treatment. […] The application volumes were 5 ml/kg.
Ex vivo analysis of RT112 tumor xenografts: RT112 bladder cancer cells express high levels of FGFR3, the activity of which can be monitored in these cells by measuring changes in FRS2 tyrosine phosphorylation, a substrate of the FGFRs. The tumor material was pulverized using a swing mill (RETSCH, either MM2 or MM200). Aliquots of tumor powder (50 mg) were lysed in ice-chilled lysis buffer containing 50 mM Tris pH 7.5, 150 mM NaCl, 1 mM EGTA, 5 mM EDTA, 1% Triton, 2 mM NaVanadate, 1 mM PMSF and protease inhibitors cocktail Roche #11873580001). Lysates were clarified by centrifugation at 12000×g for 15 min and protein concentration was determined using the DC protein assay reagents (Bio Rad #500-0116) and a BSA standard. Total cell lysates were subjected to SDS-PAGE and proteins blotted onto PVDF membranes. […]

[2] = clinical; conditions: human, in vivo, po
Protocol: (§1) Methods: Patients were treated orally with 200, 300, 400 or 500 mg/day on a once daily continuous dose schedule. […] Plasma samples from 43 patients were collected. […] Plasma FGF23 was evaluated by ELISA

[3] = test system: FGF23; experiment: FGF23 ELISA in plasma of mRCC patients; type: in vivo, human
[4] = test system: FGF23; conditions: for mean plasma FGF23 increase over baseline: melanoma patients; for Increase of FGF23 levels over basal levels (up to): 400 mg daily
Protocol: Blood sampling was performed at the indicated day and cycle. FGF23 levels were measured in plasma. The values given for C1D1 are the baseline values.
as §1

[5] = test system: FGF23; experiment: FGF23 ELISA in serum of wistar rats; type: in vivo, rat; conditions: single oral 50 mg/kg; 24 h post administration; p<0.01
Protocol: Data are presented as means of n=6, ±SD.
Animals. Experiments were performed in female wistar rats furth WF/Ico
The application volumes were 5 ml/kg.
Blood samples were drawn sublingually at 24 h post-compound administration. Plasma, as well as serum samples were prepared from each blood sample.

[6] = test system: phosphorylated and activated FGFR; experiment: Immunohistochemistry of pFGFR in melanoma tumor biopsy; conditions: melanoma patient, 400 mg, cycle 1 Day 15
[7] = test system: FGF23; experiment: FGF23 ELISA in serum of Rowett rats bearing RT112 xenografts; conditions: single oral 10, 25, 50 mg/kg; 24 hours post dosing; p<0.01
Protocol: FGF23 levels were monitored using the FGF23 ELISA kit from Kainos, catalogue number CY-4000, and are expressed in pg/mL. Data are presented as means of n=4, ±SD. Data were compared by one-way Anova post-hoc Dunnett's versus vehicle.
Animals. Experiments were performed in female Rowett rats Hsd:RH-Foxlrnu. These athymic Nude-Rats were obtained from Harlan (The Netherlands)
Compound Formulation and Animal Treatment. […] Vehicle consisted of acetic acid-acetate buffer (pH 4.6)/PEG300 (2:1 v/v). The application volumes were 5 ml/kg.
Blood and tissue sampling for ex vivo analysis. Blood samples were drawn sublingually at 3 h, 7 h and 24 h post-compound administration. Plasma and as serum were prepared from each blood sample. At the same time points, tumors were dissected and snap frozen in liquid nitrogen.

[8] = Phase I clinical trial in metastatic renal cell carcinoma patients: PK, toxicity, efficacy

CN1CCN(c2ccc3nc(-c4c(N)c5c(F)cccc5[nH]c4=O)[nH]c3c2)CC1 [TKI258]
FRS2 tyrosine phosphorylation in RT112 tumors [1]: inhibited FRS2 tyrosine phosphorylation in a dose-dependent manner | AUC(0-t) ([2]; 400 mg): ~3000 ng·h/mL | AUC(0-t) ([2]; 500 mg): ~4100 ng·h/mL | peak of FGF23 level (day of cycle 1) ([3]; mRCC patients having increased FGF23): ~15 days | increase of FGF23 level compared to the baseline level ([3]; mRCC patients having increased FGF23, 500 mg/day): 1.35-1.75 | plasma FGF23 levels ([3]; pts from the first 500 mg/day dosing cohort): Induction of plasma FGF23 levels | FGF23 ([4]; Patient A, 200 mg daily oral, C1D15): 39.8 pg/mL | FGF23 ([4]; Patient A, 200 mg daily oral, C1D26): 24.4 pg/mL | FGF23 ([4]; Patient A, 200 mg daily oral, C3D26): 31.8 pg/mL | FGF23 ([4]; Patient A, 200 mg daily oral, C6D26): 21.1 pg/mL | FGF23 ([4]; Patient A, 200 mg daily oral, C9D26): 39.6 pg/mL | FGF23 ([4]; Patient B, 400 mg daily oral, C1D15): 94.1 pg/mL | FGF23 ([4]; Patient B, 400 mg daily oral, C3D26): 88.5 pg/mL | FGF23 ([4]; Patient B, 400 mg daily oral, C4D26): 141.5 pg/mL | FGF23 ([4]; Patient C, 400 mg daily oral, C1D15): 86.5 pg/mL | peak of FGF23 (day in first cycle of treatment) ([4]; melanoma and metastatic renal cell carcinoma patients, 400 mg or 500 mg, preliminary observation): ~15 days | mean plasma FGF23 increase over baseline ([4]; day 15 of the first treatment cycle): 63% | mean plasma FGF23 increase over baseline ([4]; end of the first treatment cycle): 68% | plasma FGF23 increase over baseline ([4]; one patient, 400 mg, Cycle 1 Day 15): 98% | plasma FGF23 level ([4]; one patient, 400 mg, Cycle 1 Day 15 (baseline level 40 pg/ml)): about 80 pg/ml | Increase of FGF23 levels over basal levels (up to) ([4]; patient B): up to 1.96 fold | Increase of FGF23 levels over basal levels (up to) ([4]; patient B, listed as TK1258): ≤ 1.96 fold | Increase of FGF23 levels over basal levels (up to) ([4]; patient C): ≤ 2.1 fold | serum levels of FGF23 vs vehicle-treated group [5]: statistically significant increased in serum levels of FGF23 | pFGFR in tumor biopsy (immunohistochemistry) [6]: significant pFGFR inhibition | serum levels of FGF23 vs vehicle-treated group [7]: dose-dependent increased in serum levels of FGF23 | Preliminary evidence of efficacy (other responses) ([8]; mRCC patients): 4 stable disease and 1 dramatic shrinkage/necrosis of some target lesions | minor response (change at C4) ([8]; one mRCC patient, C4): −17%
